Assay results: patent publication US20210046084A1, “TREATMENT OF ADVANCED ESTROGEN RECEPTOR POSITIVE BREAST CANCER” (ESTETRA SPRL, priority 2018, published 2021)
Where two headings read alike, the source gives them in different places.

What was measured:
[1] = system: long term estrogen deprived MCF7 breast cancer cells (LTED cells); assay: Growth of long term estrogen deprived MCF7 cells, cell count analysis; type: cell-based; details: for Cell number per well: LTED cells, count on Day 7, control 5.36
Description: In order to assess the potential of an estetrol component to inhibit the growth of estrogen deprived breast cancer cells, in vitro studies in long term estrogen deprived MCF7 breast cancer cells (LTED cells) were conducted. LTED cells are deprived of estrogen, making them a suitable in vitro model to study drug effects in women who have been using estrogen activity suppressors for a long time.
LTED cells were plated in 6-well plates at a density of 30,000 cells per well. The cells were maintained in phenol red free IMEM with 5% charcoal stripped FBS (DCC-FBS). On Day 3, the medium was replaced with fresh phenol red free IMEM with 5% DCC-FBS. The cells were then exposed to 6 different concentrations of estetrol ranging from 10^−12 M to 10^−7 M or to ethanol as vehicle control. The final vehicle concentration was 0.1% ethanol for all experiments. Each treatment was made in duplicate.
On Day 5, the medium was changed and on Day 7 plates were subjected to a cell count analysis.

[2] = system: ER+ locally advanced and/or metastatic breast cancer; assay: Phase I/IIa dose-escalation study of E4 in advanced breast cancer (patient of Example 4); type: in vivo, human; details: 20 mg E4 per day oral, 12 weeks
Description: An open-label, phase I/11a trial, dose-escalation study with a 3+3 cohort design is carried out to determine the recommended dose of E4 for the treatment of patients with advanced breast cancer. After completing the phase I part of the study (i.e. 4 weeks of treatment), patients receive further treatment for 8 weeks at their individual phase I dose level (phase IIa part of the study). Patients are treated for 12 weeks. Treatment continues after 12 weeks of treatment until the patient is withdrawn from the study either due to unacceptable adverse events (AEs) or disease progression. These patients are followed up according to clinical practice including radiological tumour assessments.
In total at least 9 patients with ER+ locally advanced and/or metastatic breast cancer having exhausted all treatment options are enrolled in the study. Patients are at least 5 years postmenopausal and have failed anti-estrogen treatment with tamoxifen and aromatase inhibitor because the cancer has become resistant to treatment with tamoxifen or aromatase inhibitor, or because the patient has discontinued treatment due to unacceptable side-effects. No treatment with fulvestrant is allowed within 6 months prior to the start of the E4 treatment.
• to assess quality of life in advanced breast cancer patients treated with E4, using specific questions on estrogen deficiency symptoms; • to assess preliminary anti-tumour response of E4 in patients with advanced breast cancer, according to RECIST 1.1 at the end of the study (i.e. after 12 weeks); • to assess the trough (Cmin) levels of E4 in patients with advanced breast cancer, by measuring E4 plasma concentrations before dosing at different time points during the study.
• to evaluate the safety profile of E4 in patients with advanced breast cancer by: • Performing routine laboratory parameters; • Performing physical examination; • Measuring vital signs; • Measuring electrocardiograms (ECGs); • Recording and monitoring of incidence and severity of clinical AEs and SAEs; • Radiological tumour assessments.
After completing the phase I part of the study (i.e. 4 weeks of treatment), patients receive further treatment for 8 weeks at their individual phase I dose level (phase IIa part of the study). The phase IIa part of the study includes explorative efficacy assessments to evaluate potential anti-tumour effects of E4 by RECIST criteria based on evaluation of pre- and end of treatment imaging.
Treatment is escalated in doses of 20 mg, 40 mg and 60 mg E4 across cohorts according to the 3+3 design until the non-tolerable dose is determined or the maximum anticipated dose (MAD) of 60 mg is reached. Patients are treated once daily with an oral administration of E4. […]

SHBG = target: T1, SHBG (Homo sapiens, UniProt P04278); details: cited from earlier work
T1 sequence (P04278 30-402): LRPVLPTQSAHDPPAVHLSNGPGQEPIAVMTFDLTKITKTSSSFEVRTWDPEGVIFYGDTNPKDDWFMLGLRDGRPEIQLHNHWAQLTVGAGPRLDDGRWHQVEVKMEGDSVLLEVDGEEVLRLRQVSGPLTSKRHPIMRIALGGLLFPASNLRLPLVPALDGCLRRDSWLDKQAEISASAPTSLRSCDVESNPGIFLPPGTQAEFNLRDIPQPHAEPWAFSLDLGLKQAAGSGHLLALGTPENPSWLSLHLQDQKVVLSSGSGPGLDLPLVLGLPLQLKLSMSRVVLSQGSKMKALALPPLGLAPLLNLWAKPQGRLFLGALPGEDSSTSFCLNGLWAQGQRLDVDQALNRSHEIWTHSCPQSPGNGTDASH

[3] = Plasma levels and tolerability of estetrol after daily oral administration in female patients; type: in vivo, human; details: for Trough plasma level: average of Day 7 and Day 14; for Cmax: human, plasma, read-out: Cmax plasma level
Description: For each group dosed at 2, 10, 20 and 40 mg estetrol daily (oral administration), 9 to 10 female patients were tested for their plasma content in estetrol at Day 7 and at Day 14. For each dose group, the average trough level of all patients across both days was calculated.

Structure (SMILES): C[C@]12CC[C@@H]3c4ccc(O)cc4CC[C@H]3[C@@H]1[C@@H](O)[C@@H](O)[C@@H]2O [estetrol, estra-1,3,5(10)-triene-3,15α,16α,17β-tetrol]
- Cell number per well ([1]; 10^−7 M estetrol): 0.49 ×10^5
- Cell number per well ([1]; 10^−8 M estetrol): 0.59 ×10^5
- Cell number per well ([1]; 10^−9 M estetrol): 0.56 ×10^5
- Cell number per well ([1]; 10^−10 M estetrol): 0.63 ×10^5
- Cell number per well ([1]; 10^−11 M estetrol): 3.62 ×10^5
- Cell number per well ([1]; 10^−12 M estetrol): 5.58 ×10^5
- Inhibition of growth of LTED cells ([1]; 10^−12 M to 10^−7 M): able to inhibit the growth of LTED cells
- Concentration at which peak inhibition of LTED cell growth is observed ([1]; no further inhibition at higher concentrations): 10^−10 M
- Effect on quality of life (QOL) [2]: advantageous effect
- Adverse event considered related to treatment ([2]; only one related AE, patient): breast tenderness with mild intensity
- Tolerability of treatment ([2]; patient): tolerated the treatment very well
- Tumour burden during treatment ([2]; progressive disease at start): remained stable
- Binding to SHBG (SHBG): does not bind to SHBG
- Trough plasma level ([3]; 2 mg daily oral dose): 240 pg/mL
- Cmax plasma level ([3]; 10 mg daily oral dose): 9,500 pg/mL
- Trough plasma level ([3]; 20 mg daily oral dose): 1,950 pg/mL
- Trough plasma level ([3]; 40 mg daily oral dose): 5,070 pg/mL
- Tolerability ([3]; 2, 10, 20 and 40 mg daily oral): well tolerated
- Cmax ([3]; 2 mg daily oral dose): 1.3 ng/mL
- Cmax ([3]; 20 mg daily oral dose): 23.5 ng/mL
- Cmax ([3]; 40 mg daily oral dose): 82.7 ng/mL

Structure (SMILES): C[C@]12CC[C@@H]3c4ccc(O)cc4CC[C@H]3[C@@H]1CC[C@@H]2O [estradiol, 17beta-estradiol, reference compound]
- Binding to SHBG (affinity) (SHBG; Hammond G L et al., Climacteric 2008): about 40%
